Measured values taken from patent US5442053A, “Salts and mixtures of hyaluronic acid with pharmaceutically active substances, pharmaceutical compositions containing the same and methods for administration of such compositions” (Fidia, S.p.A., priority 1983, dated 1995).

Assays:
rabbit eye = assay: Anti-inflammatory activity of triamcinolone vehicled in hyaluronic acid, dextran-induced intraocular inflammation; assay type: in vivo, rabbit (male New Zealand); settings: for Evaluated Score, Conjunctiva / Evaluated Score, Cornea / Evaluated Score, Iris / Evaluated Score, Tyndall: score 0 to 3
Description: The experiments were carried out on male New Zealand rabbits (average weight 1.6 kg). After an adaption period of 5 days, introocular inflammation was induced in the rabbits by intraocular injection of dextran (10%, 0.1 ml). The administration was effected in both eyes under local anaesthetic with 4% Novesina, inserting the needle of the syringe at the edge of the cornea in the anterior chamber at a distance of 2 mm. The test was conducted on 10 animals.
Treatment was effected in each animal both in the right and left eyes, by instillation of 3 drops 3 times a day for 6 days in all, of the following:
a solution of triamcinolone (10% in saline) in the left eye (LE);
a solution of hyaluronic acid sodium salt, HYALECTIN fraction, (10 mg/ml)+triamcinolone phosphate (10%) in the right eye (RE).
The anti-inflammatory effect on the reaction induced by dextran was evaluated by observing the eye with a slit lamp at the following intervals: 0, 1 hr, 3 hr, 24 hr, 48 hr, 3 days, 4 days, 5 days and 6 days.
At the intervals, the eye examination evaluated the following observations:
the state of the cornea and conjunctiva for the possible presence of hypermia, edema, and especially observation of the iris which is normally sensitive to inflammatory processes after injection of inflammatory agents into the anterior chamber;
the Tyndall effect, in which the presence of opacity of varying intensity ("nubecula") is indicative of the presence of corpuscular (inflammatory) elements in the anterior chamber.
The result of the observation was expressed in terms of subjective scoring (from 0 to 3) related to the gradualness of the effect noted.

pseudomonas aeruginosa = assay: Recovery from dry inflammation in rabbit eye, pseudomonas aeruginosa; assay type: in vivo
Description: (§1) Studies were carried out with hyaluronic acid salts of the antibiotics: streptomycin, erythromycin, neomycin and gentamicin. The salts utilized are the total salts in which all of the acid groups of hyaluronic acid are salified with a basic group of the antibiotic and prepared according to the procedures described hereinabove in Examples 1, 2, 4 and 5.
(§2) For administration, preparations were utilized comprising solutions of the HY drug complex in distilled water, having concentrations suitable to the antibiotic content:
(§3) The activity of the above HY salts was compared to that given by the same antibiotics dissolved in phosphate buffer and having the same concentrations of antibiotic. The activity of the two groups of products was measured on the basis of the time necessary to suppress a dry inflammation of the rabbit eye induced by a bacterial agent.
(§4) More precisely, the dry inflammation was determined in both eyes of 24 rabbits by intraocular injection of the titered suspension of one of the following bacterial groups: pseudomonas aeruginosa, staphylococcus aureus, salmonella typhi (0.1 ml). The various saline derivatives of the antibiotics were administered (3 drops every 6 hours) into the right eye (RE) of the rabbits, while into the left eye (LE) were instilled the corresponding quantities of the antibiotics dissolved in phosphate buffer. The treatment was begun immediately after injectin of the bacterial suspension and was continued until inflammation disappeared.
(§5) In particular the following were examined: the state of the conjuntiva and the corneal epithelium, anterior chamber (presence of the Tyndall effect), the state of the iris of the posterior segment of the eye. The state of the back of the eye was examined with a Goldman lens. The presence of signs of inflammation (hyperemia, exudates, cloudiness of the liquids etc.) was registered.

staphylococcus aureus = assay: Recovery from dry inflammation in rabbit eye, staphylococcus aureus; assay type: in vivo
Description: as §1, §2, §3, §4, §5

[1] = tested on: Bacillus subtillis ATCC 6633; assay: Antimicrobial activity of streptomycin sulphate vehicled in hyaluronic acid, agar diffusion; assay type: cell-based, Bacillus subtilis
Description: A solution of the two components (60 g hyaluronic acid sodium salt and 40 g streptomycin sulphate) was prepared and then freeze-dried.
The antimicrobial activity of the formulation of streptomycin in hyaluronic acid sodium salt, HYALASTINE fraction, was controlled by microbial assay by agar diffusion, based on the reading after a suitable period of incubation at 32° C., and on a comparison of the diameters of the microorganism's inhibition zones (Bacillus subtillis ATCC 6633) determined on the presumed concentrations of the antibiotic under examination and on the corresponding and known concentrations of the working standard.
After 18 hours of incubation of the assay plate at 32° C., it was observed that streptomycin vehicled in
The results (Table 11) were obtained by measuring the diameter of microbial inhibition zones at working concentrations of 20 and 5 UI/ml, and expressed in units of antimicrobial activity per miligram of the mixture compared to streptomycin sulphate.

salmonella typhi = assay: Recovery from dry inflammation in rabbit eye, salmonella typhi; assay type: in vivo
Description: as §1, §2, §3, §4, §5

[2] = day 1, pseudomonas aeruginosa, 3 drops every 6 hours, 6 eyes

C[C@]12C=CC(=O)C=C1CC[C@H]1[C@@H]3C[C@@H](O)[C@](O)(C(=O)CO)[C@@]3(C)C[C@H](O)[C@@]12F [triamcinolone] was tested, and the “Evaluated Score, Conjunctiva” value (rabbit eye; 0) was 0.0, the “Evaluated Score, Cornea” value (rabbit eye; 0) was 0.0 and the “Evaluated Score, Iris” value (rabbit eye; 0) was 0.0. The “Evaluated Score, Tyndall” value (rabbit eye; 0) was 0.0, the “Evaluated Score, Conjunctiva” value (rabbit eye; 1 hour) was 0.2 and the “Evaluated Score, Cornea” value (rabbit eye; 1 hour) was 1.0. For the same compound, the “Evaluated Score, Iris” value (rabbit eye; 1 hour) was 0.5, the “Evaluated Score, Tyndall” value (rabbit eye; 1 hour) was 1.0 and the “Evaluated Score, Conjunctiva” value (rabbit eye; 3 hours) was 0.0. For the same compound, the “Evaluated Score, Cornea” value (rabbit eye; 3 hours) was 0.0, the “Evaluated Score, Iris” value (rabbit eye; 3 hours) was 2.7 and the “Evaluated Score, Tyndall” value (rabbit eye; 3 hours) was 3.0. The “Evaluated Score, Conjunctiva” value (rabbit eye; 24 hours) was 0.0, the “Evaluated Score, Cornea” value (rabbit eye; 24 hours) was 0.1 and the “Evaluated Score, Iris” value (rabbit eye; 24 hours) was 3.0. The “Evaluated Score, Tyndall” value (rabbit eye; 24 hours) was 3.0, the “Evaluated Score, Conjunctiva” value (rabbit eye; 48 hours) was 0.0 and the “Evaluated Score, Cornea” value (rabbit eye; 48 hours) was 0.0. The “Evaluated Score, Iris” value (rabbit eye; 48 hours) was 3.0, the “Evaluated Score, Tyndall” value (rabbit eye; 48 hours) was 3.0 and the “Evaluated Score, Conjunctiva” value (rabbit eye; 3 days) was 0.0. The “Evaluated Score, Cornea” value (rabbit eye; 3 days) was 0.0, the “Evaluated Score, Iris” value (rabbit eye; 3 days) was 3.0 and the “Evaluated Score, Tyndall” value (rabbit eye; 3 days) was 3.0. For the same compound, the “Evaluated Score, Conjunctiva” value (rabbit eye; 4 days) was 0.0, the “Evaluated Score, Cornea” value (rabbit eye; 4 days) was 0.0 and the “Evaluated Score, Iris” value (rabbit eye; 4 days) was 2.4. The “Evaluated Score, Tyndall” value (rabbit eye; 4 days) was 2.2, the “Evaluated Score, Conjunctiva” value (rabbit eye; 5 days) was 0.0 and the “Evaluated Score, Cornea” value (rabbit eye; 5 days) was 0.0. For the same compound, the “Evaluated Score, Iris” value (rabbit eye; 5 days) was 1.5, the “Evaluated Score, Tyndall” value (rabbit eye; 5 days) was 1.2 and the “Evaluated Score, Conjunctiva” value (rabbit eye; 6 days) was 0.0. For the same compound, the “Evaluated Score, Cornea” value (rabbit eye; 6 days) was 0.0, the “Evaluated Score, Iris” value (rabbit eye; 6 days) was 0.5 and the “Evaluated Score, Tyndall” value (rabbit eye; 6 days) was 0.4. The “anti-inflammatory effect (in words)” value (rabbit eye; dextran-induced intraocular inflammation) was “almost normal conditions are restored, with perfect limpidness of the eye by the 6th day”.
In the case of [H]/N=C(/N)N[C@H]1[C@H](O)[C@@H](O)[C@H](O[C@@H]2O[C@@H](C)[C@](O)(C=O)[C@H]2O[C@@H]2O[C@@H](CO)[C@H](O)[C@@H](O)[C@@H]2NC)[C@@H](N/C(N)=N\[H])[C@@H]1O [Streptomycin, streptomycin], the “percentage of eyes which did not present any signs of inflammation” value (pseudomonas aeruginosa; [2]) is reported as 0.0%, the “percentage of eyes which did not present any signs of inflammation” value (pseudomonas aeruginosa; day 2, pseudomonas aeruginosa) is reported as 0.0% and the “percentage of eyes which did not present any signs of inflammation” value (pseudomonas aeruginosa; day 3, pseudomonas aeruginosa) is reported as 0.0%. For the same compound, the “percentage of eyes which did not present any signs of inflammation” value (pseudomonas aeruginosa; day 4, pseudomonas aeruginosa) was 0.0%, the “percentage of eyes which did not present any signs of inflammation” value (pseudomonas aeruginosa; day 5, pseudomonas aeruginosa) was 0.0% and the “percentage of eyes which did not present any signs of inflammation” value (pseudomonas aeruginosa; day 6, pseudomonas aeruginosa) was 16.6%. The “percentage of eyes which did not present any signs of inflammation” value (pseudomonas aeruginosa; day 7, pseudomonas aeruginosa) was 50.0% and the “percentage of eyes which did not present any signs of inflammation” value (pseudomonas aeruginosa; day 8, pseudomonas aeruginosa) was 100.0%.
In the case of CC[C@H]1OC(=O)[C@H](C)[C@@H](O[C@H]2C[C@@](C)(OC)[C@@H](O)[C@H](C)O2)[C@H](C)[C@@H](O[C@@H]2O[C@H](C)C[C@H](N(C)C)[C@H]2O)[C@](C)(O)C[C@@H](C)C(=O)[C@H](C)[C@@H](O)[C@]1(C)O [Erthromycin, erythromycin], the “percentage of eyes which did not present any signs of inflammation” value (staphylococcus aureus; day 1, staphylococcus aureus, 3 drops every 6 hours, 6 eyes) is reported as 0.0%, the “percentage of eyes which did not present any signs of inflammation” value (staphylococcus aureus; day 2, staphylococcus aureus) is reported as 0.0% and the “percentage of eyes which did not present any signs of inflammation” value (staphylococcus aureus; day 3, staphylococcus aureus) is reported as 0.0%. For the same compound, the “percentage of eyes which did not present any signs of inflammation” value (staphylococcus aureus; day 4, staphylococcus aureus) was 0.0%, the “percentage of eyes which did not present any signs of inflammation” value (staphylococcus aureus; day 5, staphylococcus aureus) was 0.0% and the “percentage of eyes which did not present any signs of inflammation” value (staphylococcus aureus; day 6, staphylococcus aureus) was 0.0%. The “percentage of eyes which did not present any signs of inflammation” value (staphylococcus aureus; day 7, staphylococcus aureus) was 16.6% and the “percentage of eyes which did not present any signs of inflammation” value (staphylococcus aureus; day 8, staphylococcus aureus) was 33.3%.
[H]/N=C(/N)N[C@H]1[C@H](O)[C@@H](O)[C@H](O[C@@H]2O[C@@H](C)[C@](O)(C=O)[C@H]2O[C@@H]2O[C@@H](CO)[C@H](O)[C@@H](O)[C@@H]2NC)[C@@H](N/C(N)=N\[H])[C@@H]1O [Streptomycin sulphate, streptomycin sulphate] was tested, and the “antimicrobial activity, Theoretical” value [1] was 750 UI/MG, the “antimicrobial activity, Effective” value ([1]; 18 hours, 32° C., 20 and 5 UI/ml) was 750 UI/MG and the “antimicrobial activity, Effective (as streptomycin sulphate content)” value ([1]; values in parenthesis) was 1000 mg/gr. The “antimicrobial activity, Theoretical (as streptomycin sulphate content)” value ([1]; values in parenthesis) was 1000 mg/gr.
With gentamicin [Gentamycin] the “percentage of eyes which did not present any signs of inflammation” value (pseudomonas aeruginosa; [2]) was 0.0%, the “percentage of eyes which did not present any signs of inflammation” value (pseudomonas aeruginosa; day 2, pseudomonas aeruginosa) was 0.0% and the “percentage of eyes which did not present any signs of inflammation” value (pseudomonas aeruginosa; day 3, pseudomonas aeruginosa) was 0.0%. For the same compound, the “percentage of eyes which did not present any signs of inflammation” value (pseudomonas aeruginosa; day 4, pseudomonas aeruginosa) was 0.0%, the “percentage of eyes which did not present any signs of inflammation” value (pseudomonas aeruginosa; day 5, pseudomonas aeruginosa) was 0.0% and the “percentage of eyes which did not present any signs of inflammation” value (pseudomonas aeruginosa; day 6, pseudomonas aeruginosa) was 33.3%. For the same compound, the “percentage of eyes which did not present any signs of inflammation” value (pseudomonas aeruginosa; day 7, pseudomonas aeruginosa) was 50.0% and the “percentage of eyes which did not present any signs of inflammation” value (pseudomonas aeruginosa; day 8, pseudomonas aeruginosa) was 100.0%.
In the case of neomycin, the “percentage of eyes which did not present any signs of inflammation” value (salmonella typhi; day 1, salmonella typhi, 3 drops every 6 hours, 6 eyes) is reported as 0.0%, the “percentage of eyes which did not present any signs of inflammation” value (salmonella typhi; day 2, salmonella typhi) is reported as 0.0% and the “percentage of eyes which did not present any signs of inflammation” value (salmonella typhi; day 3, salmonella typhi) is reported as 0.0%. For the same compound, the “percentage of eyes which did not present any signs of inflammation” value (salmonella typhi; day 4, salmonella typhi) was 0.0%, the “percentage of eyes which did not present any signs of inflammation” value (salmonella typhi; day 5, salmonella typhi) was 0.0% and the “percentage of eyes which did not present any signs of inflammation” value (salmonella typhi; day 6, salmonella typhi) was 0.0%. The “percentage of eyes which did not present any signs of inflammation” value (salmonella typhi; day 7, salmonella typhi) was 16.6% and the “percentage of eyes which did not present any signs of inflammation” value (salmonella typhi; day 8, salmonella typhi) was 33.3%.
